Test results taken from the NIST ThermoML archive (doi:10.1016/j.jct.2006.04.005).
± gives the expanded uncertainty stated by the source.

Conditions: 303.15 K, 101 kPa, Liquid; for viscosity: Capillary tube (Ostwald / Ubbelohde) method; for mass density: Pycnometric method

Clc1ccc(Cl)c(Cl)c1 [1,2,4-trichlorobenzene]
speed of sound: 1260 ± 8 m/s | viscosity: 1.613 ± 0.041 mPa·s | mass density: 1442.14 ± 12 kg/m3

Clc1cccc(Cl)c1 [1,3-dichlorobenzene]
speed of sound: 1242 ± 11 m/s | viscosity: 1.025 ± 0.026 mPa·s | mass density: 1277.12 ± 9.1 kg/m3

Clc1ccccc1Cl [1,2-dichlorobenzene]
speed of sound: 1261 ± 8 m/s | viscosity: 1.302 ± 0.033 mPa·s | mass density: 1299.24 ± 9.4 kg/m3

Cc1cccc([N+](=O)[O-])c1 [3-nitrotoluene]
viscosity: 1.777 ± 0.046 mPa·s | mass density: 1147.67 ± 7.4 kg/m3

Cc1ccccc1[N+](=O)[O-] [2-nitrotoluene]
viscosity: 1.911 ± 0.049 mPa·s | mass density: 1153.24 ± 7.4 kg/m3
